Assay results: PubChem BioAssay AID1845217 (Molecular Pharmacology Branch, DTP, NCI, 2023)

Tested on: VA-ES-BJ tumor spheroid viability
Assay: Anticancer human tumor VA-ES-BJ cell line growth inhibition;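 note: spheroids exposed to compounds for seven days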;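 for viability, T/C: percent of DMSO vehicle control viability so 100% = untreated growth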
Conditions: spheroids with HUVEC and MSC; for IC50: curve of first compound; for viability, T/C: stronger effect = lower value
Summary of the method: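 Single agents and combinations were tested on spheroids built from tumor cells plus HUVEC and hMSC, at half-log dilutions starting at or near clinical Cmax, else 10 microM; final DMSO 0.25% (v/v).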

[1] = second compound 0.003 µM, first compound 0.0316 µM
[2] = second compound 0.003 µM, first compound 0.1 µM
[3] = second compound 0.003 µM, first compound 0.316 µM
[4] = second compound 0.003 µM, first compound 1 µM
[5] = second compound 0.003 µM, first compound 3.16 µM
[6] = second compound 0.003 µM, first compound 10 µM
[7] = second compound 30 pM, first compound 0.0316 µM
[8] = second compound 30 pM, first compound 0.1 µM
[9] = second compound 30 pM, first compound 0.316 µM
[10] = second compound 30 pM, first compound 1 µM
[11] = second compound 30 pM, first compound 3.16 µM
[12] = second compound 30 pM, first compound 10 µM
[13] = second compound 94.9 pM, first compound 0.0316 µM
[14] = second compound 94.9 pM, first compound 0.1 µM
[15] = second compound 94.9 pM, first compound 0.316 µM
[16] = second compound 94.9 pM, first compound 1 µM
[17] = second compound 94.9 pM, first compound 3.16 µM
[18] = second compound 94.9 pM, first compound 10 µM
[19] = second compound 0.0003 µM, first compound 0.0316 µM
[20] = second compound 0.0003 µM, first compound 0.1 µM
[21] = second compound 0.0003 µM, first compound 0.316 µM
[22] = second compound 0.0003 µM, first compound 1 µM
[23] = second compound 0.0003 µM, first compound 3.16 µM
[24] = second compound 0.0003 µM, first compound 10 µM
[25] = second compound 0.000949 µM, first compound 0.0316 µM
[26] = second compound 0.000949 µM, first compound 0.1 µM
[27] = second compound 0.000949 µM, first compound 0.316 µM
[28] = second compound 0.000949 µM, first compound 1 µM
[29] = second compound 0.000949 µM, first compound 3.16 µM
[30] = second compound 0.000949 µM, first compound 10 µM

Structure (SMILES): CC1COCCN1c1cc(-c2ccnn2C)c2ccnc(-c3ccn[nH]3)c2n1 (stereo not given) + CC[C@@]1(O)C(=O)OCc2c1cc1n(c2=O)Cc2cc3c(CN(C)C)c(O)ccc3nc2-1
- IC50 (second compound 0.003 µM): 0.0563 µM
- IC50 (second compound 0.00949 µM): < 0.0316 µM
- IC50 (second compound 0.03 µM): < 0.0316 µM
- IC50 (second compound 0.0949 µM): < 0.0316 µM
- IC50 (second compound 0.3 µM): < 0.0316 µM
- viability, T/C [1]: 63.9%
- viability, T/C [2]: 35.5%
- viability, T/C [3]: 22.4%
- viability, T/C [4]: 12.1%
- viability, T/C [5]: 6.47%
- viability, T/C [6]: 6.01%
- viability, T/C (second compound 0.00949 µM, first compound 0.0316 µM): 40.4%
- viability, T/C (second compound 0.00949 µM, first compound 0.1 µM): 27.1%
- viability, T/C (second compound 0.00949 µM, first compound 0.316 µM): 21.2%
- viability, T/C (second compound 0.00949 µM, first compound 1 µM): 8.86%
- viability, T/C (second compound 0.00949 µM, first compound 3.16 µM): 5.91%
- viability, T/C (second compound 0.00949 µM, first compound 10 µM): 5.08%
- viability, T/C (second compound 0.03 µM, first compound 0.0316 µM): 22.6%
- viability, T/C (second compound 0.03 µM, first compound 0.1 µM): 16.9%
- viability, T/C (second compound 0.03 µM, first compound 0.316 µM): 12.8%
- viability, T/C (second compound 0.03 µM, first compound 1 µM): 6.37%
- viability, T/C (second compound 0.03 µM, first compound 3.16 µM): 4.95%
- viability, T/C (second compound 0.03 µM, first compound 10 µM): 4.49%
- viability, T/C (second compound 0.0949 µM, first compound 0.0316 µM): 8.54%
- viability, T/C (second compound 0.0949 µM, first compound 0.1 µM): 7.09%
- viability, T/C (second compound 0.0949 µM, first compound 0.316 µM): 6.46%
- viability, T/C (second compound 0.0949 µM, first compound 1 µM): 5.74%
- viability, T/C (second compound 0.0949 µM, first compound 3.16 µM): 4.46%
- viability, T/C (second compound 0.0949 µM, first compound 10 µM): 4.49%
- viability, T/C (second compound 0.3 µM, first compound 0.0316 µM): 6.2%
- viability, T/C (second compound 0.3 µM, first compound 0.1 µM): 5.86%
- viability, T/C (second compound 0.3 µM, first compound 0.316 µM): 4.85%
- viability, T/C (second compound 0.3 µM, first compound 1 µM): 4.65%
- viability, T/C (second compound 0.3 µM, first compound 3.16 µM): 4.8%
- viability, T/C (second compound 0.3 µM, first compound 10 µM): 4.19%

Structure (SMILES): COc1cc(C)[nH]c(=O)c1CN1CCc2c(Cl)cc(C(OC)C3COC3)c(Cl)c2C1=O (stereo not given) + COc1cc2c(cc1O)CCNC21CSC2c3c(OC(C)=O)c(C)c4c(c3C(COC1=O)N1C(O)C3Cc5cc(C)c(OC)c(O)c5C(C21)N3C)OCO4
- IC50 (second compound 30 pM): 0.933 µM
- IC50 (second compound 94.9 pM): 0.981 µM
- IC50 (second compound 0.0003 µM): < 0.0316 µM
- IC50 (second compound 0.000949 µM): < 0.0316 µM
- IC50 (second compound 0.003 µM): < 0.0316 µM
- viability, T/C [7]: 75.7%
- viability, T/C [8]: 71.1%
- viability, T/C [9]: 58.6%
- viability, T/C [10]: 49.4%
- viability, T/C [11]: 45.2%
- viability, T/C [12]: 40.9%
- viability, T/C [13]: 66.9%
- viability, T/C [14]: 68.6%
- viability, T/C [15]: 59.3%
- viability, T/C [16]: 49%
- viability, T/C [17]: 43.1%
- viability, T/C [18]: 36.8%
- viability, T/C [19]: 38.5%
- viability, T/C [20]: 36.2%
- viability, T/C [21]: 33.1%
- viability, T/C [22]: 36.7%
- viability, T/C [23]: 27.2%
- viability, T/C [24]: 29.4%
- viability, T/C [25]: 2.44%
- viability, T/C [26]: 2.53%
- viability, T/C [27]: 2.69%
- viability, T/C [28]: 2.75%
- viability, T/C [29]: 2.25%
- viability, T/C [30]: 1.84%
- viability, T/C [1]: 1.25%
- viability, T/C [2]: 1.11%
- viability, T/C [3]: 1.37%
- viability, T/C [4]: 1.01%
- viability, T/C [5]: 1.1%
- viability, T/C [6]: 2%

Structure (SMILES): CC(C)n1c(=O)n(C)c2cnc3cc(F)c(-c4ccc(OCCCN5CCCCC5)nc4)cc3c21 + COc1cc2c(cc1O)CCNC21CSC2c3c(OC(C)=O)c(C)c4c(c3C(COC1=O)N1C(O)C3Cc5cc(C)c(OC)c(O)c5C(C21)N3C)OCO4
- IC50 (second compound 30 pM): 5.85 µM
- IC50 (second compound 94.9 pM): < 0.0316 µM
- IC50 (second compound 0.0003 µM): < 0.0316 µM
- IC50 (second compound 0.000949 µM): < 0.0316 µM
- IC50 (second compound 0.003 µM): < 0.0316 µM
- viability, T/C [7]: 76.2%
- viability, T/C [8]: 76.6%
- viability, T/C [9]: 75.2%
- viability, T/C [10]: 81%
- viability, T/C [11]: 79.1%
- viability, T/C [12]: 26%
- viability, T/C [13]: 50.3%
- viability, T/C [14]: 45.4%
- viability, T/C [15]: 46.6%
- viability, T/C [16]: 54.1%
- viability, T/C [17]: 47.8%
- viability, T/C [18]: 28.6%
- viability, T/C [19]: 25.9%
- viability, T/C [20]: 25.1%
- viability, T/C [21]: 30.5%
- viability, T/C [22]: 31.5%
- viability, T/C [23]: 19.7%
- viability, T/C [24]: 13.2%
- viability, T/C [25]: 1.74%
- viability, T/C [26]: 1.58%
- viability, T/C [27]: 1.8%
- viability, T/C [28]: 1.79%
- viability, T/C [29]: 1.02%
- viability, T/C [30]: 1.02%
- viability, T/C [1]: 1.5%
- viability, T/C [2]: 1.42%
- viability, T/C [3]: 1.59%
- viability, T/C [4]: 0.72%
- viability, T/C [5]: 0.45%
- viability, T/C [6]: 0.56%
